In patent US20060258003A1, “Culture medium composition, culture method, and myoblasts obtained, and their uses” (CELOGOS, priority 2002, published 2006):

Assays:
rat adipocyte cells = assay: Cell test predictive of muscle toxicity, rat adipocyte cells; conditions: 0.5 μM; 2 days culture
human muscle cells [1] = assay: Effect of Hepes buffer on long-term growth of human muscle cells; type: cell-based; conditions: 15 mM in culture medium
human muscle cells [2] = assay: Toxicity of commercial statins on human muscle cells; type: cell-based; conditions: 0-1 μM; FIG. 4; total culture time 5 days
Procedure: These experiments were reproduced with human muscle cells in order to test the toxicity of the commercial statins.
The experimentation procedure is as follows.
On day 1 the media are changed. On day 3 staining is carried out.
The total culture time is 5 days.
After aspiration of the culture medium, the cells are washed with PBS then fixed with 100% ethanol. 10 minutes later the cells are washed with water then stained with a solution of 10% Giemsa for 10 minutes. The final step is washing with water.
Images of the cells are obtained with an inverted microscope (Nikon) equipped with a digital camera and a motorized stage.

[3] = compared with other statins; cited from earlier work

CC[C@H](C)C(=O)O[C@H]1C[C@@H](C)C=C2C=C[C@H](C)[C@H](CC[C@@H]3C[C@@H](O)CC(=O)O3)[C@H]21 [Lovastatin]
sensitivity of adipocyte cells (rat adipocyte cells): insensitive

O=S(=O)(O)CCN1CCN(CCO)CC1 [Hepes]
growth of human muscle cells in the long term (human muscle cells [1]): inhibits the growth

COCc1c(C(C)C)nc(C(C)C)c(/C=C/[C@@H](O)C[C@@H](O)CC(=O)O)c1-c1ccc(F)cc1 [Cerivastatin]
toxicity on human muscle cells (human muscle cells [2]): high toxicity | toxicity in human clinical use [3]: most toxic statin
